Data as given in ChEMBL document CHEMBL1909046, “DrugMatrix in vitro pharmacology data”.

Tests used:
[1] = DRUGMATRIX: Sigma2 radioligand binding (ligand: [3H] Ifenprodil); assay type: cell membranes, Rattus norvegicus, Wistar, Brain, Membrane; settings: Not Active = under 50% inhibition at 10 µM
Cytochrome P450 2E1 = Cytochrome P450 2E1 (Homo sapiens, UniProt P05181); settings: bti-tn-5b1-4; further: in other assays of this panel Not Active means under 50% inhibition at 10 µM
[2] = target: T1, Amine oxidase [flavin-containing] A (Homo sapiens, UniProt P21397); assay: DRUGMATRIX: Monoamine Oxidase MAO-A enzyme inhibition (substrate: Kynuramine); parameters: species or system BTI-TN-5B1-4; settings: bti-tn-5b1-4; Not Active = under 50% inhibition at 10 µM
T1 sequence (P21397 whole entry): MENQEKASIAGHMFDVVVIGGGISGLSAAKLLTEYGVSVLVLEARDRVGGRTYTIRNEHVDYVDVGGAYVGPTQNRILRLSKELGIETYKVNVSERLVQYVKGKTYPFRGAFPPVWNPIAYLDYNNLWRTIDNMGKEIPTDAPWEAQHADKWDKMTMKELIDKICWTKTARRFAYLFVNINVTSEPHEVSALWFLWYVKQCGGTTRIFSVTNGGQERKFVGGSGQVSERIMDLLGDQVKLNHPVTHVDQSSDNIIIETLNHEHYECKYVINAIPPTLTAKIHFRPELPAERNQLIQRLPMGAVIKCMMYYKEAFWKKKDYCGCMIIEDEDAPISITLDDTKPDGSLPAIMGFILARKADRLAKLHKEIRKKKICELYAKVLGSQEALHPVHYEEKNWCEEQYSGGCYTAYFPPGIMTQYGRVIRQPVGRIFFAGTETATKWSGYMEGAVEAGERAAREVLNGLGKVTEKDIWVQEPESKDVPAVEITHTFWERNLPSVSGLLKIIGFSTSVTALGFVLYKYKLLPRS

[3] = target: 5-hydroxytryptamine receptor 6 (Homo sapiens, UniProt P50406); assay type: cell membranes, HeLa, Membrane; further: in other assays of this panel Not Active means under 50% inhibition at 10 µM
Cannabinoid receptor 1 = Cannabinoid receptor 1 (Homo sapiens, UniProt P21554); assay type: cell membranes, Membrane; settings: chem-1; further: in other assays of this panel Not Active means under 50% inhibition at 10 µM
Adenosine receptor A2a = Adenosine receptor A2a (Homo sapiens, UniProt P29274); assay: DRUGMATRIX: Adenosine A2A radioligand binding (ligand: […]); assay type: cell membranes, HEK293, Membrane; settings: hek293; Not Active = under 50% inhibition at 10 µM
[4] = target: T2, Cholecystokinin receptor type A (Homo sapiens, UniProt P32238); assay type: cell membranes, Membrane; settings: 1321-n1; further: in other assays of this panel Not Active means under 50% inhibition at 10 µM
T2 sequence (P32238 whole entry): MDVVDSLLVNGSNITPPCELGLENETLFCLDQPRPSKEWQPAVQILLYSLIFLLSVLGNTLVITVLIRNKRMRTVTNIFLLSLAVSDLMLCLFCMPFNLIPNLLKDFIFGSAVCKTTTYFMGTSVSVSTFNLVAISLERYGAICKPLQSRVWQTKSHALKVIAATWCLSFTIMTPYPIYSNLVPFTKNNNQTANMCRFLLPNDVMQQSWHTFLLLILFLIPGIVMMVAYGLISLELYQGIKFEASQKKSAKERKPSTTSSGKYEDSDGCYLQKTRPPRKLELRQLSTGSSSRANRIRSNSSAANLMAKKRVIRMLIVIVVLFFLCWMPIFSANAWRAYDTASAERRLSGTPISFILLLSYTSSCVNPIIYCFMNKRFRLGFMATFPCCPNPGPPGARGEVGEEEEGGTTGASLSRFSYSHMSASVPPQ

[5] = target: Epidermal growth factor receptor (Homo sapiens, UniProt P00533); assay: DRUGMATRIX: Protein Tyrosine Kinase, EGF Receptor enzyme inhibition (substrate: Poly(Glu:Tyr)); assay type: cell-based, Insect cells; settings: Not Active = under 50% inhibition at 10 µM
[6] = target: Aldo-keto reductase family 1 member B1 (Rattus norvegicus, UniProt P07943); assay type: tissue-based, Lens of camera-type eye
Insulin receptor = Insulin receptor (Rattus norvegicus, UniProt P15127); assay type: cell membranes, Wistar, Liver, Membrane; further: in other assays of this panel Not Active means under 50% inhibition at 10 µM
[7] = DRUGMATRIX: Tumor Necrosis Factor (TNF), Non-Selective radioligand binding (ligand: [125I] TNF-alpha); assay type: cell membranes, Membrane; settings: u-937; Not Active = under 50% inhibition at 10 µM
Thromboxane-A synthase = target: T3, Thromboxane-A synthase (Homo sapiens, UniProt P24557); assay: biochemical; assay type: tissue-based, Platelet
T3 sequence (P24557 whole entry): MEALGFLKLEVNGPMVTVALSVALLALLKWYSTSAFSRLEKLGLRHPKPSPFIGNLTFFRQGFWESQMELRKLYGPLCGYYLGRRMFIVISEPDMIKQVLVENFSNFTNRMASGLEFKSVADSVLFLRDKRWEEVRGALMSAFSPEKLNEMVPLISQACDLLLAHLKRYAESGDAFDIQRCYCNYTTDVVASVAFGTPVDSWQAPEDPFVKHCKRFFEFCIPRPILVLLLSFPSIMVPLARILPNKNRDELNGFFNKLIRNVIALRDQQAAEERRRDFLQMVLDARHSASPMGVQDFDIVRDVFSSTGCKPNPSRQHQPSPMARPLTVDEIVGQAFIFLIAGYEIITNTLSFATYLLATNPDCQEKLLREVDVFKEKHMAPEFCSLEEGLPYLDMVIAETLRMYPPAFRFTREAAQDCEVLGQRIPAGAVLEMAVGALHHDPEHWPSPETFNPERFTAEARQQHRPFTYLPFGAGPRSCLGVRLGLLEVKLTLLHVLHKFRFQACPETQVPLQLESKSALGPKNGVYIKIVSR

D(3) dopamine receptor = D(3) dopamine receptor (Homo sapiens, UniProt P35462); assay: DRUGMATRIX: Dopamine D3 radioligand binding (ligand: [3H] Spiperone); assay type: cell membranes, CHO, Membrane
Calcitonin receptor = target: T4, Calcitonin receptor (Homo sapiens, UniProt P30988); assay type: cell membranes, Membrane; settings: t47d; further: in other assays of this panel Not Active means under 50% inhibition at 10 µM
T4 sequence (P30988 whole entry): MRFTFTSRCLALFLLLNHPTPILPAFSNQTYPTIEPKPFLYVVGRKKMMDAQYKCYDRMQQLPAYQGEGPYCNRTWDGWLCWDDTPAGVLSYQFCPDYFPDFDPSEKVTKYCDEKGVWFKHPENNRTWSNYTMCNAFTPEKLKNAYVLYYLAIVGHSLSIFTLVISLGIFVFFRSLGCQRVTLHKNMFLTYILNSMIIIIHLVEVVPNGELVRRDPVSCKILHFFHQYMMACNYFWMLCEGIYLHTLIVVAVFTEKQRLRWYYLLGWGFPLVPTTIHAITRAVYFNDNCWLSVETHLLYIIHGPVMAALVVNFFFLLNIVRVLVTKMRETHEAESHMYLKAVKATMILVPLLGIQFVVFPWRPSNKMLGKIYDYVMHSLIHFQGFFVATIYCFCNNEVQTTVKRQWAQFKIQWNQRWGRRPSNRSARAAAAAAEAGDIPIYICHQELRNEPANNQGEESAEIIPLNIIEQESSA

[8] = DRUGMATRIX: Sodium/nucleoside co-transporter radioligand binding (ligand: nitrobenzylthioinosine); assay type: cell membranes, Cavia porcellus, Dunkin-Hartley, Cerebral cortex, Membrane; settings: Not Active = under 50% inhibition at 10 µM

Chain of Epidermal growth factor receptor (P00533 whole entry): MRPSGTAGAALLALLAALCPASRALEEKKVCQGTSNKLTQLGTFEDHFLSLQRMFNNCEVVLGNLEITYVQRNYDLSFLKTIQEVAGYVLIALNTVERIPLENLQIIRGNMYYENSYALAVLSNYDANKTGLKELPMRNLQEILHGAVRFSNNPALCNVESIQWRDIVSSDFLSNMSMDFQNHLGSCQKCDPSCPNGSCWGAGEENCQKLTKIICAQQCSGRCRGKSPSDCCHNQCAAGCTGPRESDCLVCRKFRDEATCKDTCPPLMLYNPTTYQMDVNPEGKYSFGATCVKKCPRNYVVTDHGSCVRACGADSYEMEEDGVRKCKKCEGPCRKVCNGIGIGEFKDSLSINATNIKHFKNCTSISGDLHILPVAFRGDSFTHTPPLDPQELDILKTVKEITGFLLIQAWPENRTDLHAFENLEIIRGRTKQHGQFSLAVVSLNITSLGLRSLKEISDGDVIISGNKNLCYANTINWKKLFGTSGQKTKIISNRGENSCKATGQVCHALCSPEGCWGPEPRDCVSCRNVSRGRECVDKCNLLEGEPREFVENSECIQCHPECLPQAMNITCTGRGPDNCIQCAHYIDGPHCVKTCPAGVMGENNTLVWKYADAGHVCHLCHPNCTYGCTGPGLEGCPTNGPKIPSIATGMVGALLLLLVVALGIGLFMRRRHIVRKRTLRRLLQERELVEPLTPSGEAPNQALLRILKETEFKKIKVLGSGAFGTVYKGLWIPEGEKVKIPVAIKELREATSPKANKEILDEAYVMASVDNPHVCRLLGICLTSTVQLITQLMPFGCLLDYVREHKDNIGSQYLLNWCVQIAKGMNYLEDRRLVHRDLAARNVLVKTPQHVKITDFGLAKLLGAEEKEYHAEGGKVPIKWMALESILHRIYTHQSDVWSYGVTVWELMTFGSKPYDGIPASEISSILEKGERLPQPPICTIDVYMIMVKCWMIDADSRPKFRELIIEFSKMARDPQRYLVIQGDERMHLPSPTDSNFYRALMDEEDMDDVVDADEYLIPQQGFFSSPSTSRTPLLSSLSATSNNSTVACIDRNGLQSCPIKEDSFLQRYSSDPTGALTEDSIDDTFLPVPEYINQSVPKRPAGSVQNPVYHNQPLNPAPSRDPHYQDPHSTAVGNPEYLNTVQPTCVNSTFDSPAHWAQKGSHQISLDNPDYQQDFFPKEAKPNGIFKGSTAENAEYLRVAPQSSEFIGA
Chain of Cannabinoid receptor 1 (P21554 whole entry): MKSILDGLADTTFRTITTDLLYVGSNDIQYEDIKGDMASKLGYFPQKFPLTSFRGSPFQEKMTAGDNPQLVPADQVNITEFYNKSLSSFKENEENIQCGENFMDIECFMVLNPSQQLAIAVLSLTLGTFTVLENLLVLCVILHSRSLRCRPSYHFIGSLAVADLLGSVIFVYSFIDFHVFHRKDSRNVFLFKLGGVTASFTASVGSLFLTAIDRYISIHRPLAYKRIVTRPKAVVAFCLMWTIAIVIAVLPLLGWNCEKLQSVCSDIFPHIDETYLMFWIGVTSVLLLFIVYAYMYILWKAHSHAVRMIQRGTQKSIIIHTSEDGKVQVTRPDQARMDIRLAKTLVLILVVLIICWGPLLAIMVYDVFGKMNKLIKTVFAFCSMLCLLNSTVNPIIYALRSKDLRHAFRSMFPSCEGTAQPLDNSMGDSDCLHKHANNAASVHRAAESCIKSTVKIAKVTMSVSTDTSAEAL
Chain of D(3) dopamine receptor (P35462 whole entry): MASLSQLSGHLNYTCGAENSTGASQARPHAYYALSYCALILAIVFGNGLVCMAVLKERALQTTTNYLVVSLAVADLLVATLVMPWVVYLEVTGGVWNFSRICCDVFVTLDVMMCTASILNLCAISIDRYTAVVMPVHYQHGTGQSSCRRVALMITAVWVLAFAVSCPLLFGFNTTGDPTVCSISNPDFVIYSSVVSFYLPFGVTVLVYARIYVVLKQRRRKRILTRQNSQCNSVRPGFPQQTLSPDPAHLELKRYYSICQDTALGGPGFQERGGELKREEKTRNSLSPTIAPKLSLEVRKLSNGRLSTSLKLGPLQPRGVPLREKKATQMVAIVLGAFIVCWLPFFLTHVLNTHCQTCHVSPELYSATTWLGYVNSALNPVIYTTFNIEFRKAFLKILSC
Chain of 5-hydroxytryptamine receptor 6 (P50406 whole entry): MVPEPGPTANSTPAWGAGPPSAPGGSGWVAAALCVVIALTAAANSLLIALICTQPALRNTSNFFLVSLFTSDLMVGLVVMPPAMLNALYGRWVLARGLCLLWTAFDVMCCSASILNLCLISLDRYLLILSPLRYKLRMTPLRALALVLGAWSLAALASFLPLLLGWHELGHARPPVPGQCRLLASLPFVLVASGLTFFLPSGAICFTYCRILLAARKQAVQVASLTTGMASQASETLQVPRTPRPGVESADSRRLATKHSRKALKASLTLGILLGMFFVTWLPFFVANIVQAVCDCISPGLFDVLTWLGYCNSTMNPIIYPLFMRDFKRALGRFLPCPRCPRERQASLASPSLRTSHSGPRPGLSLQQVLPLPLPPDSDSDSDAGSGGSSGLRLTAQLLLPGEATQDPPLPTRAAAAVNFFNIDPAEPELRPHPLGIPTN
Chain of Insulin receptor (P15127 27-759 limits assumed): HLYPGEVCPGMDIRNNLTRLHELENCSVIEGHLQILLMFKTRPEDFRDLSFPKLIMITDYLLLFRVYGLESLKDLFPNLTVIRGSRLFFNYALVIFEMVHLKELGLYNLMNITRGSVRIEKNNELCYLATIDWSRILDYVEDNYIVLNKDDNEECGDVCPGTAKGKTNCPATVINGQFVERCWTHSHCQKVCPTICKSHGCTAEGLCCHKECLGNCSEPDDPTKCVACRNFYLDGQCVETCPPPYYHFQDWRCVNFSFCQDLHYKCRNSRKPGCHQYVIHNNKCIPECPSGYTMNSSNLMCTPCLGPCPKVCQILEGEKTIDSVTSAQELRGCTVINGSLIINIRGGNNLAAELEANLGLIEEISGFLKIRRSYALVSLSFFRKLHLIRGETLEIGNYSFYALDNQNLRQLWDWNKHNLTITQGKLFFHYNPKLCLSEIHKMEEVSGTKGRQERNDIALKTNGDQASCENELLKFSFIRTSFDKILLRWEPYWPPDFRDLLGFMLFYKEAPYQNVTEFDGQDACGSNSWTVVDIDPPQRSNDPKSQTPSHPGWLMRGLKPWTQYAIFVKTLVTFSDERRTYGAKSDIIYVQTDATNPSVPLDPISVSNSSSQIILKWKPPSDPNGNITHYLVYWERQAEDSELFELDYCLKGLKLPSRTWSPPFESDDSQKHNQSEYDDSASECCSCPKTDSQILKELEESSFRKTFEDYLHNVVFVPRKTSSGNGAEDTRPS
Chain of Insulin receptor (P15127 764-1383 limits assumed): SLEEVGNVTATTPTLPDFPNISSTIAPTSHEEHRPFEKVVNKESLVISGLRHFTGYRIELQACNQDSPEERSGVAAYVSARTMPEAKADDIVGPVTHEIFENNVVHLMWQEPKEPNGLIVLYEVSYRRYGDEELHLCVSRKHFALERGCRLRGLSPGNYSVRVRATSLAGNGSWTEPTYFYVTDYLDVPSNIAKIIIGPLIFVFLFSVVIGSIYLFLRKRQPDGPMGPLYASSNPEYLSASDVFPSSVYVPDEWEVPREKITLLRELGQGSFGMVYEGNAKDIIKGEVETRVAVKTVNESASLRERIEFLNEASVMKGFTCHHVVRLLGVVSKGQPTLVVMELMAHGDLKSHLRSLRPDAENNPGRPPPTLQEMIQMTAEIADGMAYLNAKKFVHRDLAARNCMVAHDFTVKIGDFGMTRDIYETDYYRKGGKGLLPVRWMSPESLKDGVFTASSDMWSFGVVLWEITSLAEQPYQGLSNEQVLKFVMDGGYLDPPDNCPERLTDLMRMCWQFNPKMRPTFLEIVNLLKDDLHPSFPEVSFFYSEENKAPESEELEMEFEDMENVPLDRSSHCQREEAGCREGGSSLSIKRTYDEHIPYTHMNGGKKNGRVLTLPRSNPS
Chain of Adenosine receptor A2a (P29274 whole entry): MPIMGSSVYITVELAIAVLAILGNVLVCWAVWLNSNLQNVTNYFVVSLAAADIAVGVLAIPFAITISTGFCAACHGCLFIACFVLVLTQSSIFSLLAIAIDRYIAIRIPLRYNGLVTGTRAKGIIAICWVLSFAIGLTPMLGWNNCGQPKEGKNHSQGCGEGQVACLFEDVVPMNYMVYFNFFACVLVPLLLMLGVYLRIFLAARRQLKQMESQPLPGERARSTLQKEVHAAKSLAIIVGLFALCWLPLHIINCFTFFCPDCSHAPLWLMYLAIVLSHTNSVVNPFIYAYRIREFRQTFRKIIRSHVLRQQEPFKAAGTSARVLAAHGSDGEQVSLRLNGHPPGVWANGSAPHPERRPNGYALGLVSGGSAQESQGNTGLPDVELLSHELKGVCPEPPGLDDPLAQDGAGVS
Chain of Cytochrome P450 2E1 (P05181 whole entry): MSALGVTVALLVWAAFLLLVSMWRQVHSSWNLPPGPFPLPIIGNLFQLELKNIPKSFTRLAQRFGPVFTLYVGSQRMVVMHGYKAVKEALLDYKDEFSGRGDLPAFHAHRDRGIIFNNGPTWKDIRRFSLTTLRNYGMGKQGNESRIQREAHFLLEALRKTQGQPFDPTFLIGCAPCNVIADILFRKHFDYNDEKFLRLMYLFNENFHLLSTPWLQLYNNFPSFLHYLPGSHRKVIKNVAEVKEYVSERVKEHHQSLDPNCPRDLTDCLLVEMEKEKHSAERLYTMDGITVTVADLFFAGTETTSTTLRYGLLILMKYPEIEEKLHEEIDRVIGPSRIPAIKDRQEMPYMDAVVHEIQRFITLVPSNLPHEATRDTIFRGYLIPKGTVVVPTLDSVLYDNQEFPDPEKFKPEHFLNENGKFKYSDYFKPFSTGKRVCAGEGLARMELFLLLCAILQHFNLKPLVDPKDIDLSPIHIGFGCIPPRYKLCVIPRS

Compound	IC50 [1]	Ki [1]	IC50 (Cytochrome P450 2E1)	Ki (Cytochrome P450 2E1)	IC50 [2]	IC50 ([3]; hela)	IC50 (Cannabinoid receptor 1)	IC50 (Adenosine receptor A2a)	IC50 [4]	IC50 ([5]; insect cells)	IC50 [6]	IC50 (Insulin receptor)	IC50 [7]	Ki [7]	IC50 (Thromboxane-A synthase; platelet)	IC50 (D(3) dopamine receptor; cho)	IC50 (Calcitonin receptor)	IC50 [8]	Ki [8]	other results
CCOC(=O)[C@H](CCc1ccccc1)N[C@@H](C)C(=O)N1[C@H](C(=O)O)C[C@@H]2CCC[C@@H]21	Not Active	Not Active	Not Active	Not Active	Not Active	Not Active	Not Active	Not Active	Not Active	Not Active	Not Active	Not Active	Not Active	Not Active	Not Active	Not Active	Not Active	Not Active	Not Active	
CC(C)(C)NC(=O)[C@@H]1CN(Cc2cccnc2)CCN1C[C@@H](O)C[C@@H](Cc1ccccc1)C(=O)N[C@H]1c2ccccc2C[C@H]1O.O	Not Active	Not Active	Not Active	Not Active	Not Active	Not Active	Not Active	Not Active	Not Active	Not Active	Not Active	Not Active	Not Active	Not Active		Not Active	Not Active	Not Active	Not Active	IC50 (Thromboxane-A synthase; read-out: IC50): 1850 nM
CC1(C)[C@H]2CC[C@]1(C)C(=O)C2 [(-)-CAMPHOR]	Not Active	Not Active	Not Active	Not Active	Not Active	Not Active	Not Active	Not Active	Not Active	Not Active	Not Active	Not Active	Not Active	Not Active	Not Active	Not Active	Not Active	Not Active	Not Active	
CC(C)(C)NCC(O)c1ccc(O)c(CO)c1 (configuration not stated) [ALBUTEROL]	Not Active	Not Active	Not Active	Not Active	Not Active	Not Active	Not Active	Not Active	Not Active	Not Active	Not Active	Not Active	Not Active	Not Active	Not Active	Not Active	Not Active	Not Active	Not Active	
CN(C)CCCN1c2ccccc2CCc2ccc(Cl)cc21 [CLOMIPRAMINE]			Not Active	Not Active	Not Active		Not Active	Not Active	Not Active	Not Active	Not Active	Not Active			Not Active		Not Active			IC50 ([3]; read-out: IC50): 245 nM; Ki ([3]; read-out: Ki): 114 nM; IC50 (D(3) dopamine receptor; read-out: IC50): 139 nM; Ki (D(3) dopamine receptor; read-out: Ki): 47 nM
Oc1c(I)cc(I)c2cccnc12 [IODOQUINOL]	Not Active	Not Active	Not Active	Not Active	Not Active	Not Active	Not Active	Not Active	Not Active		Not Active	Not Active	Not Active	Not Active	Not Active	Not Active	Not Active	Not Active	Not Active	IC50 ([5]; read-out: IC50): 1890 nM
NNC(=O)c1ccncc1 [ISONIAZID]	Not Active	Not Active	Not Active	Not Active	Not Active	Not Active	Not Active	Not Active	Not Active	Not Active	Not Active	Not Active	Not Active	Not Active	Not Active	Not Active	Not Active	Not Active	Not Active	
COc1cccc(C2(O)CCCCC2CN(C)C)c1 (configuration not stated) [TRAMADOL]			Not Active	Not Active	Not Active	Not Active	Not Active	Not Active	Not Active	Not Active	Not Active	Not Active			Not Active	Not Active	Not Active			
